{FAM} = fluorescein (FAM) label
Experiment: Agarose gel electrophoresis of oligonucleotide after X-ray exposure
Format: physicochemical
Conditions: X-ray 1, 2 and 4 Gy, compared with the control
Method: The PC12, HCT116 and CCD 841 CoN cells (1-4×10^4/mL) were, respectively, grown on 96-well plates in a culture medium with 10% FBS for 24 hr. For liposome and LipoDox treatment experiments, the PC12 cells and CCD 841 CoN cells were, respectively, incubated with different liposome and LipoDox samples for 4 hours, followed by incubation in a fresh medium for further 24 hours. For the X-ray exposure experiments, all three types of cells were radiated with 4 Gy, followed by incubation in a fresh medium for further 24 and 48 hours. Cell viability was assessed by using the same method as described above. For X-ray treatment of pure DNA molecules and mixture of DNA and verteporfin, 50 μL of antisense oligonucleotide solution (10 μg/mL) and 50 μL of mixture solution (10 μg/mL DNA and 32 μg/mL verteporfin) was respectively exposed to X-ray radiation with different dosage (1, 2 and 4 Gy). After treatment, the gel electrophoresis was carried out in 1.2% agarose gel in Tris-acetate-EDTA (TAE) buffer at 95 V for 45 min. The gel was stained with SYBR Safe DNA Gel Stain (Thermo Fisher) and photographed under UV light using a Bio-Rad imaging system.

Substance: 5′-TGGTGCTTCCCAGCCACTAT-3′ (SEQ ID NO:1) (3' {FAM}, sugars by position and backbone not given here) [DNA molecules, antisense oligonucleotide against PAC1R gene, 10 μg/mL solution exposed to X-ray]
- damage to oligonucleotide after X-ray radiation (gel electrophoresis): did not cause obvious damage

Source: patent US12036282B2, “Liposomal system for drug delivery” (NewSouth Innovations PTY Limited, priority 2017, dated 2024)
